{
  "source": "patent US20050182084A1",
  "about": "“Method for treating erectile dysfunction” (FUJISAWA PHARMACEUTICAL CO., LTD., priority 2004, published 2005)",
  "test_system": "rat cavernous nerve injury model",
  "assay": "recovery of erectile function in rat cavernous nerve injury model (intracavernous pressure)",
  "format": "in vivo",
  "method": "Effect of the compound (Ia) on erectile dysfunction was confirmed by a rat cavernous nerve injury model.\n• (1) The recovery of erectile function after cavernous nerve injury was basically assessed in a similar manner to that of BJU International 92, 470-475 (2003). • (2) The compound (Ia), in a form of the solution which was prepared in a similar manner to that of Example 1 mentioned above, or its placebo was given to rats, from 1 day after surgery to 1 day before harvesting for 8 weeks, subcutaneously after being diluted with a suitable amount of HCO-60/EtOH in physiological saline.",
  "data": [
    {"compound": "CO[C@H]1C[C@@H](C)C/C(C)=C/[C@@H](CC(C)=O)C(=O)C[C@H](O)[C@@H](C)[C@@H](/C(C)=C/[C@@H]2CC[C@@H](O)[C@H](OC)C2)OC(=O)[C@@H]2CCCCN2C(=O)C(=O)[C@]2(O)O[C@H]1[C@@H](OC)C[C@H]2C", "note": "[Compound (Ia)]", "values": [
      {"measurement": "effect on intracavernous pressure (in words)", "setting": "rat cavernous nerve injury model, conclusion from Table 1", "result": "remarkable recovery effect on intracavernous pressure"},
      {"measurement": "Peak intracavernous pressure(cm H2O) mean ± S.E.", "setting": "rat, cavernous nerve injury, 1 mg/kg subcutaneously, from 1 day after surgery for 8 weeks, n = 7, **P < 0.01 v.s. vehicle-treated (Dunnett's post-test)", "result": "97.4 ± 8.0** cm H2O"}
    ]}
  ]
}
